Patent US12612412B2, “Antiviral heterocyclic compounds” (Enanta Pharmaceuticals, Inc., priority 2021, dated 2026)
pEC50: −log10 of the molar value. Like-named read-outs stand apart in the source and are kept apart here.

Legend:
[1] = tested on: HMPV clinical isolate TN/1501/A1; test: HMPV antiviral assay Method-B (clinical isolate TN/1501/A1 in LLC-MK2 cells, ATP-Lite readout); assay type: cell-based, Human metapneumovirus (HMPV); conditions: human metapneumovirus, LLC-MK2, 144 h, hMPV WT1501 (clinical isolate TN/1501/A1), 6 days
Summary of the method: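 LLC-MK2 cells infected in suspension with TN/1501/A1 at MOI 0.014 in serum-free medium with 2 μg/mL TPCK-trypsin (final), incubated 6 days at 37° C. Compounds tested in duplicate, 10-point 3-fold dilutions from 10 μM. Cell health read by ATP-Lite luminescence, normalised to virus-only and cells-only controls; EC50 by four-parameter logistic fit.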

[2] = tested on: genotype A, "Long" strain RSV; test: RSV-A assay (CPE protection in Hep-2 cells, ATPlite readout); assay type: cell-based, Human respiratory syncytial virus (HRSV); conditions: human respiratory syncytial virus, MOI 0.1, CPE protection
Summary of the method: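 Hep-2, 8,000 cells/well, MOI 0.1 (PFU- or TCID50-based); 2-fold compound series, duplicates; 5 d incubation; ATPlite luminescence readout; EC50.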

[3] = genotype A “Long” strain RSV, read-out: Human RSV-A (“Long”)
[4] = RSV-A Long strain, read-out: Human RSV-A (“Long”) EC50

pEC50 [1] | pEC50 [2, 3] | pEC50 [2, 4] | Structure (SMILES)
< 6.30 | > 6.70 |  | C[C@]1(C(N)=O)COc2c1cc([C@@](O)(CNC(=O)c1cc(Cl)c3nn(C4CC4)cc3c1)C1CC1)nc2-c1ccc(C(F)(F)F)cc1 [Example 795]
> 6.30 | > 6.70 |  | COc1cc(C(=O)NC[C@](O)(c2cc3c(c(-c4ccc(C(F)(F)F)cc4)n2)OC[C@]3(C)C(N)=O)C2CC2)cc2cn(C(F)F)nc12 [Example 796]
> 6.30 | > 6.70 |  | Cc1cnc2c(Cl)cc(C(=O)NC[C@](O)(c3cc4c(c(-c5ccc(C(F)(F)F)cc5)n3)OC[C@]4(C)C(N)=O)C3CC3)cc2c1 [Example 798]
> 6.30 | > 6.70 |  | COc1cc(C(=O)NC[C@](O)(c2cc3c(c(-c4ccc(F)c(Br)c4F)n2)OC[C@]3(C)C(N)=O)C2CC2)cc2cn(C3CC3)nc12 [Example 799]
> 6.30 | > 6.70 |  | C[C@]1(C(N)=O)COc2c1cc([C@@](O)(CNC(=O)c1cc(Cl)c3nn(C4CC4)cc3c1)C1CC1)nc2-c1ccc(F)c(Br)c1F [Example 800]
> 6.30 | > 6.70 |  | COc1cc(C(=O)NC[C@](O)(c2cc3c(c(-c4ccc(F)c(Br)c4F)n2)OC[C@]3(C)C(N)=O)C2CC2)cc2cn(C(F)F)nc12 [Example 801]
> 6.30 | > 6.70 |  | COc1cc(C(=O)NC[C@](O)(c2cc3c(c(-c4ccc(F)c(Br)c4F)n2)OC[C@]3(C)C(N)=O)C2CC2)cc2cn(C3(F)CC3)nc12 [Example 802]
> 6.30 | > 6.70 |  | COc1cc(C(=O)NC[C@](O)(c2cc3c(c(-c4ccc(F)c(Cl)c4)n2)OC[C@]3(C)C(N)=O)C2CC2)ccc1OC1CC1 [Example 811]
> 6.30 | > 6.70 |  | C[C@]1(C(N)=O)COc2c1cc([C@@](O)(CNC(=O)c1ccc3nn(C4CC4)cc3c1)C1CC1)nc2-c1ccc(F)c(Cl)c1 [Example 815]
> 6.30 | > 6.70 |  | COc1cc(C(=O)NC[C@](O)(c2cc3c(c(-c4ccc5c(c4)OC(F)(F)O5)n2)OC[C@]3(C)C(N)=O)C2CC2)cc2cn(C3CC3)nc12 [Example 816]
> 6.30 | > 6.70 |  | COc1cc(C(=O)NC[C@](O)(c2cc3c(c(-c4ccc5c(c4)OC(F)(F)O5)n2)OC[C@]3(C)C(N)=O)C(F)(F)F)ccc1OC1CC1 [Example 817]
> 6.30 | > 6.70 |  | C[C@@H](O)COc1ccc(C(=O)NC[C@](O)(c2cc3c(c(-c4ccc5c(c4)OC(F)(F)O5)n2)OC[C@]3(C)C(N)=O)C(F)(F)F)cc1OC1CC1 [Example 818]
> 6.30 | > 6.70 |  | C[C@]1(C(N)=O)COc2c1cc([C@@](O)(CNC(=O)c1ccc3nn(C4CC4)cc3c1)C(F)(F)F)nc2-c1ccc2c(c1)OC(F)(F)O2 [Example 819]
> 6.30 | > 6.70 |  | COc1cc(C(=O)NC[C@](O)(c2cc3c(c(-c4ccc(F)cc4)n2)OC[C@]3(C)C(N)=O)C(F)(F)F)cc2cn(C3(F)CC3)nc12 [Example 820]
< 6.30 | > 6.70 |  | COc1cc(C(=O)NC[C@](O)(c2cc3c(c(-c4ccc(F)cc4)n2)OC[C@]3(C)C(N)=O)C(F)(F)F)cc2cn(C3(O)CC3)nc12 [Example 821]
> 6.30 | > 6.70 |  | C[C@]1(C(N)=O)COc2c1cc([C@@](O)(CNC(=O)c1cc(OC3CC3)n3nc(C4CC4)cc3c1)C1CC1)nc2-c1ccc2c(c1)OC(F)(F)O2 [Example 822]
> 6.30 | > 6.70 |  | COc1cc(C(=O)NC[C@](O)(c2cc3c(c(-c4ccc5c(c4)OC(F)(F)O5)n2)OC[C@]3(C)C(N)=O)C2CC2)cc2cn(C(F)F)nc12 [Example 823]
> 6.30 | > 6.70 |  | C[C@]1(C(N)=O)COc2c1cc([C@@](O)(CNC(=O)c1ccn3nc(C4CC4)cc3c1)C1CC1)nc2-c1ccc2c(c1)OC(F)(F)O2 [Example 824]
> 6.30 | > 6.70 |  | COc1cc(C(=O)NC[C@](O)(c2cc3c(c(-c4ccc5c(c4)OC(F)(F)O5)n2)OC[C@]3(C)C(N)=O)C2CC2)cc2cc(Cl)c(C)nc12 [Example 825]
> 6.30 | > 6.70 |  | COc1cc(C(=O)NC[C@](O)(c2cc3c(c(-c4ccc5c(c4)OC(F)(F)O5)n2)OC[C@]3(C)C(N)=O)C2CC2)cc2cc(C3CC3)nn12 [Example 826]
> 6.30 |  | > 6.70 | C[C@]1(C(N)=O)COc2c1cc([C@@](O)(CNC(=O)c1cc(F)c3nc(N)sc3c1)C1CC1)nc2-c1ccc2c(c1)OC(F)(F)O2 [Example 827]
> 6.30 |  | > 6.70 | COc1cc(C(=O)NC[C@](O)(c2cc3c(c(-c4ccc5c(c4)OC(F)(F)O5)n2)OC[C@]3(C)C(N)=O)C2CC2)cn2cc(C3CC3)nc12 [Example 828]

pEC50 [1] | pEC50 [2, 3] | pEC50 [2, 4] | Structure (SMILES)
< 6.30 |  | > 6.70 | C[C@@H](O)COc1ccc(C(=O)NC[C@](O)(c2cc3c(c(-c4ccc5c(c4)OC(F)(F)O5)n2)OC[C@]3(C)C(N)=O)C2CC2)cc1OC1CC1 [Example 829]
> 6.30 |  | > 6.70 | COc1cc(C(=O)NC[C@](O)(c2cc3c(c(-c4ccc5c(c4)OC(F)(F)O5)n2)OC[C@]3(C)C(N)=O)C2CC2)ccc1OC1CC1 [Example 830]
> 6.30 |  | > 6.70 | C[C@]1(C(N)=O)COc2c1cc([C@@](O)(CNC(=O)c1ccc3nn(C4CC4)cc3c1)C1CC1)nc2-c1ccc2c(c1)OC(F)(F)O2 [Example 831]
< 6.30 |  | > 6.70 | C[C@]1(C(N)=O)COc2c1cc([C@@](O)(CNC(=O)c1ccc3nn(C4(F)CC4)cc3c1)C(F)(F)F)nc2-c1ccc(F)cc1 [Example 832]
< 6.30 |  | > 6.70 | C[C@]1(C(N)=O)COc2c1cc([C@@](O)(CNC(=O)c1cc(F)c3nn(C4(F)CC4)cc3c1)C(F)(F)F)nc2-c1ccc(F)cc1 [Example 833]
> 6.30 |  | > 6.70 | C[C@]1(C(N)=O)COc2c1cc([C@@](O)(CNC(=O)c1cc(Cl)c3nn(C4(F)CC4)cc3c1)C(F)(F)F)nc2-c1ccc(F)cc1 [Example 834]
> 6.30 |  | > 6.70 | COc1cc(C(=O)NC[C@](O)(c2cc3c(c(-c4ccc5c(c4)OC(F)(F)O5)n2)OC[C@]3(C)C(N)=O)C2CC2)cc2cn(C3(F)CC3)nc12 [Example 835]
> 6.30 |  | > 6.70 | COc1cc(C(=O)NC[C@](O)(c2cc3c(c(-c4ccc(F)c(Cl)c4)n2)OC[C@]3(C)C(N)=O)C2CC2)cc2cn(C3(F)CC3)nc12 [Example 836]
> 6.30 |  | > 6.70 | COc1cc(C(=O)NC[C@](O)(c2cc3c(c(-c4ccc5c(c4)OC(F)(F)O5)n2)OC[C@]3(C)C(N)=O)C(F)(F)F)cc2cn(C3(F)CC3)nc12 [Example 837]
> 6.30 |  | > 6.70 | COc1cc(C(=O)NC[C@](O)(c2cc3c(c(-c4ccc5c(c4)OC(F)(F)O5)n2)OC[C@]3(C)C(N)=O)C2CC2)cc2cn(C3(Cl)CC3)nc12 [Example 838]
> 6.30 |  | > 6.70 | COc1cc(C(=O)NC[C@](O)(c2cc3c(c(-c4cc(Cl)ccc4F)n2)OC[C@]3(C)C(N)=O)C2CC2)cc2cn(C3(F)CC3)nc12 [Example 839]
> 6.30 |  | > 6.70 | COc1cc(C(=O)NC[C@](O)(c2cc3c(c(-c4ccc(Cl)cc4F)n2)OC[C@]3(C)C(N)=O)C2CC2)cc2cn(C3(F)CC3)nc12 [Example 840]
> 6.30 |  | > 6.70 | COc1cc(C(=O)NC[C@](O)(c2cc3c(c(-c4ccc(F)c(Cl)c4)n2)OC[C@]3(C)C(N)=O)C2CC2)cc2cn(C3(Cl)CC3)nc12 [Example 841]
> 6.30 |  | > 6.70 | COc1cc(C(=O)NC[C@](O)(c2cc3c(c(-c4cc(Cl)ccc4F)n2)OC[C@]3(C)C(N)=O)C2CC2)cc2cn(C3(Cl)CC3)nc12 [Example 842]
> 6.30 |  | > 6.70 | COc1cc(C(=O)NC[C@](O)(c2cc3c(c(-c4ccc(Cl)cc4F)n2)OC[C@]3(C)C(N)=O)C2CC2)cc2cn(C3(Cl)CC3)nc12 [Example 843]
> 6.30 |  | > 6.70 | COc1cc(C(=O)NC[C@](O)(c2cc3c(c(-c4ccc(F)cc4Cl)n2)OC[C@]3(C)C(N)=O)C2CC2)cc2cn(C3(Cl)CC3)nc12 [Example 844]
> 6.30 |  | > 6.70 | COc1cc(C(=O)NC[C@](O)(c2cc3c(c(-c4ccc(F)c(C(F)(F)F)c4)n2)OC[C@]3(C)C(N)=O)C2CC2)cc2cn(C3(Cl)CC3)nc12 [Example 845]
> 6.30 |  | > 6.70 | C[C@]1(C(N)=O)COc2c1cc([C@@](O)(CNC(=O)c1cc(OC3CC3)c3nn(C4(F)CC4)cc3c1)C1CC1)nc2-c1ccc2c(c1)OC(F)(F)O2 [Example 846]
> 6.30 |  | > 6.70 | C[C@]1(C(N)=O)COc2c1cc([C@@](O)(CNC(=O)c1cc(OC3CC3)c3nn(C(F)F)cc3c1)C1CC1)nc2-c1ccc2c(c1)OC(F)(F)O2 [Example 847]
> 6.30 |  | > 6.70 | C[C@]1(C(N)=O)COc2c1cc([C@@](O)(CNC(=O)c1cc(F)c3nn(C4(F)CC4)cc3c1)C1CC1)nc2-c1ccc2c(c1)OC(F)(F)O2 [Example 848]
> 6.30 |  | > 6.70 | C[C@]1(C(N)=O)COc2c1cc([C@@](O)(CNC(=O)c1cc(Cl)c3nn(C4(F)CC4)cc3c1)C1CC1)nc2-c1ccc2c(c1)OC(F)(F)O2 [Example 849]
< 6.30 |  | > 6.70 | COc1cc(C(=O)NC[C@](O)(c2nc(-c3ccc(F)cc3)c3c(c2F)[C@](C)(C(N)=O)CO3)C(F)(F)F)cc2cn(C3CC3)nc12 [Example 850]
